US8535931B2, “Non-photosynthetic micro-organisms enriched with organic selenium from seleno-hydroxyacid compounds and applications thereof in the field of nutrition, cosmetics and pharmacueuticals” (priority 2008, dated 2013)
Where two headings read alike, the source gives them in different places.

Columns and labels:
[1] = system: Lactobacillus paracasei 3052-E000; format: cell-based; conditions: for inhibitor effect on the growth or reduction in the biomass production yield: up to 20 mg/L (in selenium equivalent); for reduction in the biomass production yield: 48 h
Protocol: In this experiment, the growth characteristics of the bacterium Lactobacillus paracasei were measured in the presence of different concentrations of selenium in the form of sodium selenite, selenomethionine, 2-hydroxy-4-methylseleno-butanoic acid and compared with the growth characteristics in the absence of additives.
The pre-culture of the strain Lactobacillus paracasei 3052-E000 is carried out in liquid MRS medium, at 42° C., without agitation for 24 h. The culture of the strain Lactobacillus paracasei 3052-E000 was carried out from an inoculum (1.10^7 UFC/ml) of the above pre-culture in 100 mL of MRS medium, at pH=6.4 and at a temperature of 42° C. (without agitation).
The cultures were monitored by absorbance measurements at 550 nm and CFU counting carried out on MRS plate.
The concentrations tested for the addition of selenium selenite are 0.5 mg/L, 2 mg/L, 10 mg/L and 20 mg/L in selenium equivalent, i.e. respectively 1.11 mg/L, 4.44 mg/L, 22.22 mg/L and 44.44 mg/L of sodium selenite. The graph of FIG. 4 makes it possible to visualise the growth of the strain Lactobacillus paracasei 3052-E000 in the presence of sodium selenite.
The concentrations tested for the addition of selenomethionine are 0.5 mg/L, 2 mg/L, 10 mg/L and 20 mg/L in selenium equivalent, i.e. respectively 1.25 mg/L, 5 mg/L, 25 mg/L and 50 mg/L of selenomethionine.
(§1) The concentrations tested for the addition of 2-hydroxy-4-methylseleno-butanoic acid are 0.5 mg/L, 2 mg/L, 10 mg/L and 20 mg/L in selenium equivalent, i.e. respectively 1.25 mg/L, 5 mg/L, 25 mg/L and 50 mg/L of 2-hydroxy-4-methylseleno-butanoic acid (THD-177, Tetrahedron, France, CAS: 873660-49-2).
In order to complete the study of the impact of the addition of 2-hydroxy-4-methylseleno-butanoic acid, at higher values, concentrations of 40 and 60 mg/L were tested under the same conditions as previously.

[2] = system: Saccharomyces cerevisiae 3053-E000; format: cell-based; conditions: for yield of biomass obtained (change): 48 h; for concentration from which an effect on growth / biomass yield begins to show: YPG medium, pH 4, 37° C.
Protocol: In the experiments described, the growth characteristics of the yeast Saccharomyces cerevisiae 3053 E000 were measured in the presence of different concentrations of selenium in the form of sodium selenite, selenomethionine, or 2-hydroxy-4-methylseleno-butanoic acid and compared to the growth characteristics in the absence of additives (control). The pre-culture of the strain Saccharomyces cerevisiae 3053-E000 is carried out in liquid YPG medium, at 37° C., under orbital agitation (250 rpm) for 24 h.
The culture is formed from an inoculum (1.10^6 UFC/ml) of the pre-culture described previously in 100 mL of YPG medium, at pH=4 at a temperature of 37° C. under agitation (250 rpm) and according to the following conditions:
The cultures of Saccharomyces cerevisiae 3053-E000 were monitored by absorbance measurements at 550 nm and by CPU counting on YPG gelose plates.
The concentrations tested for the addition of selenium selenite are 0.5 mg/L, 10 mg/L and 20 mg/L in selenium equivalent, i.e. respectively: 1.1 mg/L, 22.22 mg/L and 44.44 mg/L of sodium selenite.
The concentrations tested for the addition of selenomethionine are 0.5 mg/L, 2 mg/L, 10 mg/L and 20 mg/L in selenium equivalent, i.e. respectively 1.25 mg/L, 5 mg/L, 25 mg/L and 50 mg/L of selenomethionine
as §1

[3] = supplementation of the diet; cited from earlier work
[4] = 10 mg/L (in selenium equivalent)
[5] = 20 mg/L (in selenium equivalent)
[6] = 10 and 20 mg/L (in selenium equivalent)

SMILES: C[Se]CCC(O)C(=O)O (stereo not shown) [THD 177, 2-hydroxy-4-methylseleno-butanoic acid]
- inhibitor effect on the growth and the biomass yield ([1]; 40 and 60 mg/L): no inhibitor effect was observed
- inhibitor effect on the growth or reduction in the biomass production yield [1]: does not show an inhibitor effect
- viability reduced by [2, 4]: 36%
- yield of biomass obtained (change) [2, 4]: −15%
- biomass yield reduced by [2, 5]: 36%
- viability reduced by [2, 5]: 50%
- concentration from which an effect on growth / biomass yield begins to show [2]: 10 mg/L (in selenium equivalent)

SMILES: C[Se]CC[C@H](N)C(=O)O [selenomethionine]
- inhibitor effect on the growth or reduction in the biomass production yield [1]: does not show an inhibitor effect
- yield of biomass obtained (change) ([2]; 2 mg/L (in selenium equivalent)): −29%
- yield of biomass obtained (change) [2, 4]: −50%
- concentration from which an effect on growth / biomass yield begins to show [2]: 2 mg/L (in selenium equivalent)

SMILES: C[Se]CC[C@H](N)C(=O)O [L(+)-selenomethionine]
- toxicity compared with an intake in the form of sodium selenite [3]: much less toxic

SMILES: O=[Se](O)O [sodium selenite]
- reduction in the biomass production yield ([1]; 0.5 mg/L (in selenium equivalent)): 25%
- toxicity on Lactobacillus paracasei [1, 6]: shows a toxicity
- reduction in the biomass production yield [1, 6]: 90%
- concentration from which an inhibitor effect on growth begins to show ([1]; MRS medium, pH 6.4, 42° C.): 0.5 mg/L (in selenium equivalent)
- yield of biomass obtained (change) [2, 4]: −50%
- toxicity for Saccharomyces cerevisiae [2, 5]: very toxic
- concentration from which an effect on growth / biomass yield begins to show [2]: 10 mg/L (in selenium equivalent)
